Results taken from patent publication US20140249139A1, “Quinazoline Derivatives” (NOVARTIS AG, priority 2011, published 2014).

Biological target: T1, PI3K delta (Homo sapiens, UniProt O00329)
T1 construct: myristylation signal (myr) (N); HA tag (N); expressed in transfected cells; host or cells: Rat1 cells, stably transfected
T1 sequence (O00329 1-1044): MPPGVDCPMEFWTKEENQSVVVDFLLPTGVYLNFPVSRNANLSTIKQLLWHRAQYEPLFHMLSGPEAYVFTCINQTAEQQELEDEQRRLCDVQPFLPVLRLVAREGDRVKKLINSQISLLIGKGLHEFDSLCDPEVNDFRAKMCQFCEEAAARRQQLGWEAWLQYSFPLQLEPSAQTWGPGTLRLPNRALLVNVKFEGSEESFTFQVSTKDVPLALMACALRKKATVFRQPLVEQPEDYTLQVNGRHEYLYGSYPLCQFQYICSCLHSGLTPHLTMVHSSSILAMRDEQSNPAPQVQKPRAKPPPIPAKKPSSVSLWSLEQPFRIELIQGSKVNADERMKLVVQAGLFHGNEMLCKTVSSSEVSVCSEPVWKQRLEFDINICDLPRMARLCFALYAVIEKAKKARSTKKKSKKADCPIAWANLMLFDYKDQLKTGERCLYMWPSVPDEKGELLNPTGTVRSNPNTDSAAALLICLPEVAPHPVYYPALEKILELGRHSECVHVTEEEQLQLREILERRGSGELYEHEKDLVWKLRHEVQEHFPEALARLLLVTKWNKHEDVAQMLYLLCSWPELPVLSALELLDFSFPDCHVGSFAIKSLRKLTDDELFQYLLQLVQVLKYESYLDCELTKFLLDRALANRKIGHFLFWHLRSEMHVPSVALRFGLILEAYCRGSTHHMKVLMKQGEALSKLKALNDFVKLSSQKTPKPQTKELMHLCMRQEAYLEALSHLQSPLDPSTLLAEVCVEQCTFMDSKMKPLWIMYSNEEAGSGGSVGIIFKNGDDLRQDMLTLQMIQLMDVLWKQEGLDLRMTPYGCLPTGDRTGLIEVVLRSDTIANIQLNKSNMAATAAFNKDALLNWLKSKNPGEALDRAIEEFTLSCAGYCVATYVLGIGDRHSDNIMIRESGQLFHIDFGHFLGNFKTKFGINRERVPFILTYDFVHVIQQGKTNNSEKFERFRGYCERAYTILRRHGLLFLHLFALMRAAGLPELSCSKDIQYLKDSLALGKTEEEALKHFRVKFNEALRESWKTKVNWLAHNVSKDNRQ
Experiment: Cellular PI3K delta inhibition: PKB Ser473 phosphorylation in Rat1 cells expressing myr-HA-p110 delta
Type: cell-based, rat
Conditions: 1 h incubation, read-out: Cell PI3Kd/ IC50
Method: The compounds tested were prepared as 10 mM stock solutions in DMSO (Merck, #8.02912.2500). Test compounds were prepared in 384 well plates (Greiner PP-Microplate, #781201) in 3-fold serial dilutions in 90% DMSO (Merck, #8.02912.2500) with 8 concentrations starting at 2 mM. Test compounds were prediluted (1:400) in two subsequent 1:20 dilution steps (5 μl+95 μl) from the master plate into starving medium in 384 well plates using a MATRIX PlateMate 2×2 pipettor (384 well-head). 25 μl/well of this 1:400 dilution were then added to the cell culture plate.
The Rat1-myr-HA-p110 alpha, beta and delta cells were trypsinized and counted with a CASY TT cell counter (Schärfe System GmbH, Reutlingen Germany). Rat1 cells expressing myr-HA-p110 alpha, beta and delta were seeded in 384-well plates at 15,000 cells per well in 50 μl/well complete medium and incubated for 20 h at 37° C., 5% CO2 until the cell layers reached 80-90% confluency. […] in 384 well plates using a MATRIX PlateMate 2×2 pipettor (384 well-head). 25 μl/well of this 1:400 dilution were then added to the cell culture plate.
Untreated cells were used as low controls, cells stimulated in absence of compounds were used as high controls. After an incubation of 1 h with compounds, cells were lysed by addition of 15 μl 3× lysis buffer (provided as 5× solution with the SureFire kit) enriched with 0.72% BSA, yielding a total volume of 45 μl cell lysate per well. Cell lysates were either used immediately of stored frozen (in sealed plates) at −20° C. until use. 5 μl of each lysate were transferred to Proxy-plates and mixed with Surefire beads, reaction buffer (containing the appropriate antibodies), activation buffer and dilution buffer according to the instructions of the supplier, yielding a total volume of 12 μl per well (the total final BSA conc. in the assay was 0.1%). After 2 h incubation (with shaking) in the dark at RT, light emission was measured using the EnVision Reader (Perkin Elmer). The difference between high and low controls was taken as 100% and compound effects were expressed as percent inhibition. IC50 values were determined from the dose response curves by graphical extrapolation.

IC50	SMILES
27.5 nM	COc1ncc(-c2ccc3ncnc(-c4cccc(C(=O)N5CCN(C)CC5)c4)c3c2)cn1 [Example 2]
83 nM	COc1ccc(-c2ccc3ncnc(-c4cccc(C(=O)N5CCN(C(C)=O)CC5)c4)c3c2)cc1S(=O)(=O)N1CCCC1 [Example 7]
14 nM	CNc1ncc(-c2ccc3ncnc(-c4cncc(C(=O)N5CCN(C)CC5)c4)c3c2)cc1C [Example 75, {5-[6-(5-Methyl-6-methylamino-pyridin-3-yl)-quinazolin-4-yl]-pyridin-3-yl}-(4-methyl-piperazin-1-yl)-methanone]
19.5 nM	COc1ccc(-c2ccc3ncnc(-c4cncc(C(=O)N5CCNC(C)(C)C5)c4)c3c2)cc1C(F)(F)F [Example 81, (3,3-Dimethyl-piperazin-1-yl)-{5-[6-(4-methoxy-3-trifluoromethyl-phenyl)-quinazolin-4-yl]-pyridin-3-yl}-methanone]
32.3 nM	COc1ccc(-c2ccc3ncnc(-c4cccc(C(=O)N5C[C@@H]6C[C@H]5CN6C)c4)c3c2)cn1 [Example 91, {3-[6-(6-Methoxy-pyridin-3-yl)-quinazolin-4-yl]-phenyl}-((1S,4S)-5-methyl-2,5-diaza-bicyclo[2.2.1]hept-2-yl)-methanone]
103 nM	COc1ccc(-c2ccc3ncnc(-c4cc(F)cc(C(=O)N5CCN(C(C)=O)CC5)c4)c3c2)cn1 [Example 110, 1-(4-{3-Fluoro-5-[6-(6-methoxy-pyridin-3-yl)-quinazolin-4-yl]-benzoyl}-piperazin-1-yl)-ethanone]
43 nM	COc1ccc(-c2ccc3ncnc(-c4ccc(C)c(C(=O)N5CC6CC5CN6C)c4)c3c2)cn1 (stereo not shown) [Example 117]
